According to article PMC6397180 (Scientific Reports, 2019):
“And” between values parts separate entries of the source, which are not always exact repeats. Identical values can stand only once.

Legend:
293T cells = experiment: Flow cytometry of labeled CPP uptake; format: cell-based, human; settings: for effect of soluble heparin on CPP uptake: 293T cells incubated with labeled CPPs and increasing concentrations of soluble heparin; for decrease of CPP uptake at 4 °C compared with 37 °C: 2 μM CPP, 4 °C (10 min pre-incubation) vs 37 °C
Description: 293T cells were plated in 12-well plates at 2.5 × 10^5 cells per well, to achieve approximately 70% - 80% confluence by the next day. Thirty minutes before the experiment, cell medium was changed to low-serum DMEM with 1% Pen-Strep. Cells were washed once with PBS, treated with Tat-CPP in low-serum DMEM, and placed in either a tissue-culture incubator (37 °C/5% CO2) or a refrigerator (4 °C)(samples treated at 4 °C were pre-incubated in refrigerator for 10 minutes before CPP treatment). Cells were gently washed twice with PBS (w/10%FBS), then treated with 300 µl of pre-warmed 0.05% trypsin for 5 min, to detach cells and enzymatically digest surface-bound Tat-CPP. Cells were resuspended in 1 ml PBS (with 10% FBS and 2 mM EDTA), and peptide uptake assessed by flow cytometry (FACScalibur). Live cells were gated using forward-scatter and side-scatter ratio, then interrogated >10,000 live-cell events each for fluorescence signal emission at 488 nm. Data was analyzed using FlowJo software v9.3.3 (FlowJo LLC). To adjust for differences in instrument settings and voltage adjustments between experiments we transformed the raw MFI values within each experiment into values proportional to the greatest MFI reading in that particular experiment. Heparinase enzymes were used to pre-treat cells by combination of Heparinase I and III at 17 IU and 1 IU, respectively, per mL of plain DMEM. Cells were treated with enzymes for 2 h in an 37 °C, then washed with PBS and exposed to CPPs as above.

[1] = tested on: interaction of Tat with HSPGs on TZM-bl cells; experiment: Inhibition of transcellular transactivation by HSPG competitive antagonists; format: cell-based, human; settings: TZM-bl cells exposed to Tat-B-WT produced in HeLa cells
Description: HeLa cells were seeded in 6-well plates at 7.5 × 10^5 cells per well and transfected with 2.5 μg of Tat expression plasmid DNA (Lipofectamine 3000, Invitrogen). After 6 h, the media was replaced with DMEM/10% FBS. Next day, TZM-bl reporter cells were seeded in a 24-well plate, at 1.5 × 10^5 cells per well. Similarly, C20 microglial cells were seeded in a 12-well plate, at 3 × 10^5 cells per well. After allowing 5–6 h for cell attachment, supernatant from the tat-transfected HeLa cells was collected, which was centrifuged at 500 × g for 10 minutes to remove debris and dead cells. Importantly, at this step and all others involving handling of Tat-containing media, siliconized tubes and tips were used to minimize the adsorption of Tat to surfaces. Tat-transfected HeLa supernatants were used to replace either TZM-bl media (400 μL) or C20 media (800 μL), and the cells incubated for 12 h (C20) or 24 h (TZM-bl).
TZM-bl cell lysates were harvested and stored at −80 °C until luciferase activity was measured. Frozen TZM-bl cell lysates were thawed on ice for 30 minutes, centrifuged at 14,000 × g for 2 minutes, and the protein concentration in the supernatants measured by BCA protein assay. […] The side of the plate was gently tapped and each sample was immediately assayed for luciferase activity using a plate-reader, measuring each sample in Relative Light Units (RLU) (PerkinElmer VICTOR-2).

[2] = tested on: primary human neuron-astrocyte co-cultures; experiment: Treatment of neurons with spent media from Tat-exposed microglia; format: cell-based; settings: co-cultures treated 30 h with 200 µl spent media from Tat-exposed microglia, neurotubulin staining
Description: (§1) C20 microglia were exposed for 24 h, to equivalent inputs of HeLa cell media containing Tat protein (Tat-B*, Tat-B* R57S, Tat-C or Tat-C S57R or empty vector) as described above for cytokine expression. As a control, spent media of HeLa cells transfected with an empty pcDNA 3.1 construct was used. Approximately 50, 000 cells containing a mixture of human fetal neurons and glia plated on 35 mm MatTek plates were treated with 200 µl of spent media from Tat-exposed microglial cultures for 30 h.
For the purpose of imaging of neurons and quantifying axonal/dendritic lengths, neurons treated as above were fixed with 4% PFA for 15 min and washed with 1x PBS. Cells were permeabilized with 0.1% Triton X-100 for 3 minutes and washed as before. Non-specific sites were blocked with 1X SBS buffer (50 mM EDTA, 0.01% Fish Gelatin, 0.1 g BSA, 1% Horse serum in PBS) for 1 h at room temperature and the cells washed. Cells were stained with anti-neurotubulin antibodies, anti-GFAP antibodies and DAPI to stain neurons, glial cells and nuclei respectively. Neuronal images were captured using a Leica Confocal TCS SP5 microscope (Leica Microsystems, Bannockburn, IL). Axonal/dendritic lengths were quantified using Volocity 6.3 software.

C20 microglial cells = experiment: TNFα protein in supernatants of Tat-treated microglia (Luminex cytokine detection assay); format: cell-based, human; settings: C20 microglia exposed 24 h to equivalent inputs of Tat-containing HeLa media
Description: as §1

[3] = tested on: h-Hu_C20 human microglial cells; experiment: qRT-PCR of cytokine gene expression in C20 cells exposed to Tat; format: cell-based; settings: equivalent levels of Tat proteins applied; compared with position 57 variant of the same clade
Description: We transfected 2 × 10^6 HeLa cells with pEGFP, pcDNA 3.1 and the plasmids expressing the four Tat variants. At 24 hours post transfection, media were collected and Tat ELISA performed to determine the amount of Tat present. C20 microglia (2 × 10^6) were incubated with equal amounts of Tat media for 24 h. PMA (5 ng) or LPS (5 ng) were also included in separate wells as controls. C20 cells were washed with PBS, treated with trypsin, pelleted by centrifugation at 500 × g for 10 minutes, and total cell RNA isolated using an RNeasy Kit (Qiagen). RNA was reverse transcribed in a first-strand cDNA synthesis reaction (GoScript, Promega), using oligo dT primers. The cDNA was diluted to 100 ng per 3 μL in each reaction well, and combined with 2x Taqman Gene Expression Master Mix (ThermoFisher) and Taqman Gene Expression Assay primer-probes: GAPDH (Hs02758991_g1), IL6 (Hs00985639_m1), IL8 (Hs00174103_m1), IL-1β (Hs00174097_m1) or CXCL1 (Hs00236937_m1). Each sample was assayed in triplicate on a 384-well plate, and run under standard qRT-PCR cycling conditions on a 7900HT instrument (ABI).

[4] = tested on: PMA-differentiated THP-1 cells; experiment: Confocal microscopy of labeled CPP uptake; format: cell-based; settings: 1 μM peptide, 37 °C, 30 minutes, trypsin to strip surface-bound CPP, fluorescence 488 nm
Description: Approximately 4 × 10^5 THP-1 cells were plated in 35 mm MatTek cover dishes in media containing 10 nM PMA to induce adherence and differentiation. After 48 h the media was changed to RPMI/FBS without PMA. Thirty minutes before adding the labeled-CPPs, cell media were replaced with low serum (1% FBS) RPMI. THP-1 cells were treated with CPP for 30 minutes at 37 °C, washed twice with phosphate buffered saline (PBS) in 10% FBS, and incubated with 0.05% trypsin for 10 minutes to digest any surface-bound CPPs. Cells were washed twice with PBS/FBS and then incubated for 20 minutes in Hank’s Buffered Salt Solution (HBSS) with 1X diluted WGA-633 cell membrane stain (Life Technologies). […] Cells were imaged using a Leica SP8 Confocal Microscope and collected fluorescence data from 405 nm (DAPI stained cell nuclei), 488 nm (internalized labeled-CPP signal), and 633 nm (WGA-633 stained plasma membrane) channels as a series of Z-stacks. Analysis of cells with red and green fluorescence was conducted using Image J. The perimeter of each cell was circled using the red stain as a guide. Subsequently, mean intensity of green fluorescence contained in each cell was measured. For each condition, three random fields of view were analyzed.

[5] = tested on: LTR-driven luciferase reporter gene in TZM-bl cells; format: cell-based, human

## GRKKRRQRRS [CPP-S57, Tat CPP decapeptide (residues 48–57) of HIV-1C, N-terminal HiLyte Fluor 488 tag]
293T cells; 293T and THP1 cells, increasing concentrations of CPP, flow cytometry
  uptake in dose response: reduced uptake
293T cells
  effect of soluble heparin on CPP uptake: dose-dependent inhibition of uptake
293T cells; 293T cells, flow cytometry
  decrease of CPP uptake at 4 °C compared with 37 °C: 50% and ~ 50%

## heparin
[1]
  concentration sufficient to diminish transcellular transactivation of extracellular Tat to near background levels: 10 µg/mL

## Tat-B*: Tat-B variant with R7N and K12N mutations and C-terminal myc tag
[2]
  appearance of neuronal processes (dendrites and axons): shorter and thinner
C20 microglial cells
  TNFα protein levels in supernatants of Tat-treated microglia: 19.2 ng/mL
[3]
  inflammatory cytokine gene transcripts IL-6, IL-8, IL-1β and CXCL1: higher levels

## GRKKRRQRRR [CPP-R57, Tat CPP decapeptide (residues 48–57) of HIV-1B, N-terminal HiLyte Fluor 488 tag]
293T cells
  effect of soluble heparin on CPP uptake: dose-dependent inhibition of uptake
293T cells; 293T cells, flow cytometry
  decrease of CPP uptake at 4 °C compared with 37 °C: ~ 75%
293T cells; 293T cells, flow cytometry, 2 μM peptide, n = 4
  CPP-R57 uptake relative to CPP-S57: 3–4 fold
[4]
  internalization of labeled peptide (confocal microscopy): higher amount of labeled peptide

## Cc1ccc(C(=O)Nc2ccc(S(=O)(=O)O)c3cc(S(=O)(=O)O)cc(S(=O)(=O)O)c23)cc1NC(=O)c1cccc(NC(=O)Nc2cccc(C(=O)Nc3cc(C(=O)Nc4ccc(S(=O)(=O)O)c5cc(S(=O)(=O)O)cc(S(=O)(=O)O)c45)ccc3C)c2)c1 [suramin]
[1]
  concentration sufficient to diminish transcellular transactivation of extracellular Tat to near background levels: 100 µg/mL

B1: Tat-B-49AAA51: Tat-B with triple alanine substitution in residues 49-RKK-51 (protein, UniProt P04608 1-86, looked up, variant R49A K50A K51A)
Protein Tat: MEPVDPRLEPWKHPGSQPKTACTNCYCKKCCFHCQVCFITKALGISYGAAARRQRRRAHQNSQTHQASLSKQPTSQPRGDPTGPKE
[5]
  transcriptional activity relative to TatB-WT: 10%
[5]; TZM-bl cells directly transfected, relative to Tat-B-WT
  decrease of luciferase output upon direct transfection: approximately 90%
